± gives the expanded uncertainty stated by the source.
Details: Crystal 1; Chromatography

Structure (SMILES): O=C(O)[C@H](O)[C@@H](O)C(=O)O (relative stereo) [(R*,R*)-2,3-dihydroxybutanedioic acid]
- Normal melting temperature: 206.00 °C

Structure (SMILES): O=C(O)[C@H](O)[C@@H](O)C(=O)O [(2R,3R)-2,3-dihydroxybutanedioic acid]
- Normal melting temperature: 170.20 ± 1 °C

Reference: the NIST ThermoML archive (doi:10.1021/je300170y)
